Key:
[1] = test system: ENST1 (TaENST1-4A); design: species or system wheat cv. CM82036; details: in vivo
[2] = test system: Arabidopsis root hair; experiment: Root hair assay (apoptosis-like programmed cell death); format: cell-based, Arabidopsis thaliana; details: 65 μM SA, one day post treatment
Method: The root hair assay was conducted as previously described (Kacprzyk et al. 2014). Briefly, five days old seedling were treated with 65 μM SA solution and incubated at 22° C. in constant light until scoring. The Apostosis-Like Program Cell Death (AL-PCD) was assessed by scoring root hair viability with a fluorescein diacetate (FDA) staining and examination under the microscope of the emission of the fluorescein when excited at the wavelength 485 nm. Root hairs negative for FDA staining were examined further and scored as programmed cell death (PCD) when having a condensed cell content and protoplast retracted away from the cell wall (as opposed to necrotic cells which have no retracted cytoplasm and therefore no distinguishable morphology compared to living cells under the light microscope). The percentage for each category was calculated as a percentage of the total number of root hair scored (about 100) averaged over at least three replicates.

Structure (SMILES) | ENST1 expression in tissues treated with the toxin [1] | ENST1 induction by DON [1] [fold] | programmed cell death (PCD) in root hairs after SA treatment [2]
CC1=C[C@H]2O[C@@H]3[C@H](O)C[C@](C)([C@@]2(CO)[C@H](O)C1=O)[C@]31CO1 [DON, deoxynivalenol] | high expression | 43 | –
O=C(O)c1ccccc1O [SA, salicylic acid] | – | – | significant inductions of PCD

Source: US10221427B2 (priority 2014, dated 2019)
